We go through five molecules from the NIST ThermoML archive (doi:10.1016/j.jct.2005.12.004).

Each structure is given as a SMILES string. ± gives the expanded uncertainty stated by the source.

For series [1] the following is noted: DTA.
Series [2] in a line: Molar enthalpy of transition or fusion. Particulars: DSC.

Regarding `NCCCCCCN` [1,6-hexanediamine], the Normal melting temperature in series [1] (Crystal) stood at 38.5 ± 0.53 °C. Also, the “Molar enthalpy of transition or fusion” value in series [2] (Crystal) is 39.4 ± 1.1 kJ/mol.
The corresponding values for `NCCCCCCCCN` [1,8-diaminooctane] are 51.73 ± 0.53 °C and 50.5 ± 1.2 kJ/mol.
In the case of `NCCCCCCCCCN` [1,9-diaminononane], the Normal melting temperature in series [1] (Crystal 1) came to 34.62 ± 0.53 °C. Besides, the Triple point temperature in series [1] (Crystal 2) was determined as 301.14 ± 0.53 K. The results for the “Molar enthalpy of transition or fusion” value in series [2] (Crystal 1) and in series [2] (Crystal 2) were 35.4 ± 1.1 kJ/mol and 8.56 ± 0.84 kJ/mol, respectively.
Consider `NCCCCCCCCCCCCN` [1,12-dodecanediamine], for which the Normal melting temperature in series [1] (Crystal) is 68.69 ± 0.53 °C. In addition, the “Molar enthalpy of transition or fusion” value in series [2] (Crystal) was 67 ± 1.5 kJ/mol.
For `c1ccc(-c2ccccc2)cc1` [biphenyl], in that order: 69.22 ± 0.53 °C and 19.7 ± 0.9 kJ/mol.
